Assay results: patent US20010056086A1, “USE OF ANTI-OESTROGENS AS MALE CONTRACEPTIVES” (priority 1995, published 2001)

System: normal adult male rats
Assay: 28-day treatment of normal adult male rats: organ weight and histology of the male reproductive tract, epididymal sperm properties
Assay type: in vivo
Details: 2.5 mg/kg subcutaneously, 28 days
Description: The above-described properties of antiestrogens were obtained in tests that were performed with the ICI-antiestrogen 7α-[9-(4,4,5,5,5-pentafluoropentylsulfinyl)-nonyl]-estra-1,3,5(10)-triene-3,17β-diol on normal adult male rats.
The test design and the results are described in the list below:
Observations regarding the organ weight of the male reproductive tract and sperm properties: […]

C[C@]12CC[C@@H]3c4ccc(O)cc4C[C@@H](CCCCCCCCC[S+]([O-])CCCC(F)(F)C(F)(F)F)[C@H]3[C@@H]1CC[C@@H]2O (stereo partly drawn) [7α-[9-(4,4,5,5,5-pentafluoropentylsulfinyl)-nonyl]-estra-1,3,5(10)-triene-3,17β-diol]
histology of the organs studied (seminal vesicles, prostate, testicles, epididymis) (vs vehicle control): No effects
weight of the organs studied (seminal vesicles, prostate, testicles, epididymis) (vs vehicle control): No effects
acrosomal state of sperm (epididymal sperm): Induction of an early incipient acrosomal reaction
sperm motility (epididymal sperm): Inhibition of motility
